System: bentgrass cultivar “Penncross”
Experiment: Turf quality and color ratings on fungicide-treated bentgrass field plots (decline from crown and root rot)
Format: in vivo
Conditions: summary statements of the text on the field tests
Method: Fungicides were evaluated on a one-year-old stand of the bentgrass cultivar “Penncross” planted in Raleigh, N.C., U.S.A. The bentgrass was planted in native soil and maintained under conditions similar to a golf green with a mowing height of 0.635 cm (.25 inches).
The fungicides were applied separately and in combination at labelled rates to 1.5 m×1.5 m (5 ft×5 ft) plots of bentgrass prior to evidence of any decline in turf quality due to crown and root rot. A CO2 backpack sprayer was used to apply the fungicide treatments at (30 lbs psi) using TEEJET™ 8004 nozzles to apply 9.5 liters (2.5 gallons) of fungicide dilutions per 93 square meters (1000 sq ft). The fungicides were initially applied and subsequently reapplied according to a 14 day schedule. In some experiments, an electrical pump sprayer was used to apply the treatments at 30 psi using a Teejet 8004 nozzle.
Turf quality, color and percent disease ratings were recorded weekly, based on a scale from 1-9, with 9 being ideal turf quality and color and 1 being all turf dead. The percent disease ratings were calculated based on the percent of area in each plot showing symptoms of brown patch. Turf quality and color ratings were used as an indicator of the health of the bentgrass and the amount of decline associated with crown and root rot.

[Cu+2].c1ccc2c(c1)-c1nc-2nc2[n-]c(nc3nc(nc4[n-]c(n1)c1ccccc41)-c1ccccc1-3)c1ccccc21 [Pigment Blue 15]
turf quality and color, comparison in words: enhances the activity of the ALIETTE™ and mancozeb in a synergistic interaction

From patent publication USRE42394E1, “Fungicidal compositions for the enhancement of turf quality” (Bayer CropScience Inc., priority 1995, dated 2011)
